34 molecules from ChEMBL document CHEMBL5291721, “A preclinical secondary pharmacology resource illuminates target-adverse drug reaction associations of marketed drugs” (Nat Commun, 2023) can be followed below.

Structures are written as SMILES. Bounds are passed on as bounds.

In assay [1] the target is T1, Gastrin/cholecystokinin type B receptor (Homo sapiens, UniProt P32239).
T1 sequence (P32239 whole entry): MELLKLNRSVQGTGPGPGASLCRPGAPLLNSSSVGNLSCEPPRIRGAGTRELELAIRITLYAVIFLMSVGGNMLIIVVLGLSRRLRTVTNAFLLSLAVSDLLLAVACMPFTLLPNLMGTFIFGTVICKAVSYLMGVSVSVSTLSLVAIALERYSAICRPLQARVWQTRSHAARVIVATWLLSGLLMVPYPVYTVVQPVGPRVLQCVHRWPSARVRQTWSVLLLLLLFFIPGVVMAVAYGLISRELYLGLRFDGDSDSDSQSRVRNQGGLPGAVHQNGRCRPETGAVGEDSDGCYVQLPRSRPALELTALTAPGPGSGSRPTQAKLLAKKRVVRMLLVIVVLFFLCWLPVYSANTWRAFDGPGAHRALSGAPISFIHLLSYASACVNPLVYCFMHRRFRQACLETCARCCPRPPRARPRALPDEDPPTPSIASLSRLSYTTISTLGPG

For a further assay, the target named is T2, Endothelin-1 receptor (Homo sapiens, UniProt P25101).
T2 sequence (P25101 whole entry): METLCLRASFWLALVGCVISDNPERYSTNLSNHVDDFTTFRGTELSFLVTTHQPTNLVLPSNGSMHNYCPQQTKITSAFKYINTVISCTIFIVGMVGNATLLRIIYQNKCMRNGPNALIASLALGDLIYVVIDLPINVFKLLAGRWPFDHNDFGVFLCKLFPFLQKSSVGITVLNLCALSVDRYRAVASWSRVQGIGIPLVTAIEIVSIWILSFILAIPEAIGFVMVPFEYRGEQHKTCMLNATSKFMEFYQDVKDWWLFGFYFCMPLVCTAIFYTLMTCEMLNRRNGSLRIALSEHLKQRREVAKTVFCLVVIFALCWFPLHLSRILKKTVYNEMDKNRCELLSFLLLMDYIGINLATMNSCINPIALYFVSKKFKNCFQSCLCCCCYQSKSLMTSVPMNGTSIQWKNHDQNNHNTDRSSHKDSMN

In the next assay the target is T3, Thromboxane A2 receptor (Homo sapiens, UniProt P21731).
T3 sequence (P21731 whole entry): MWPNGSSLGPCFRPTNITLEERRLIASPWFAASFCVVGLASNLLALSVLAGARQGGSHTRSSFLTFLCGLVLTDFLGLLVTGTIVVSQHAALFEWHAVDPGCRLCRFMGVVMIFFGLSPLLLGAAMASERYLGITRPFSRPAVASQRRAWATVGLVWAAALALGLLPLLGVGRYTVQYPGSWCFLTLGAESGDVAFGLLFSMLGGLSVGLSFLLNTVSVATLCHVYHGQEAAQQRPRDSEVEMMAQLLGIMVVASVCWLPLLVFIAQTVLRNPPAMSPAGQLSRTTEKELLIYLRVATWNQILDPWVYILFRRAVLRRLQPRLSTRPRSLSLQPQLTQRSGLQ

For assay [2], the target named is T4, Alpha-1A adrenergic receptor (Homo sapiens, UniProt P35348).
T4 sequence (P35348 whole entry): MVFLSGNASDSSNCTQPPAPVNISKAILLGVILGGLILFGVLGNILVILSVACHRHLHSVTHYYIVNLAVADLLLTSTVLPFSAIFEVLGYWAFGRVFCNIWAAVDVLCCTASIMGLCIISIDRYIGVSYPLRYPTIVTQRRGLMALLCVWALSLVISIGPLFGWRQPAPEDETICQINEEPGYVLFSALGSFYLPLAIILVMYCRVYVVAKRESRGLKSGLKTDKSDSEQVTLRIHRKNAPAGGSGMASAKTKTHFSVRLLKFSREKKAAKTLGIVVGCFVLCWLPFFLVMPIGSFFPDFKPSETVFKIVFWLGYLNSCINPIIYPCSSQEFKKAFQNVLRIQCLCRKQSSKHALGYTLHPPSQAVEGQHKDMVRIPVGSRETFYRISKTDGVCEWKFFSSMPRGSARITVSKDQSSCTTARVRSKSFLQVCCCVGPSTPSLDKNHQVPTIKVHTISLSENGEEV

For assay [3], the target named is T5, 5-hydroxytryptamine receptor 1A (Homo sapiens, UniProt P08908).
T5 sequence (P08908 whole entry): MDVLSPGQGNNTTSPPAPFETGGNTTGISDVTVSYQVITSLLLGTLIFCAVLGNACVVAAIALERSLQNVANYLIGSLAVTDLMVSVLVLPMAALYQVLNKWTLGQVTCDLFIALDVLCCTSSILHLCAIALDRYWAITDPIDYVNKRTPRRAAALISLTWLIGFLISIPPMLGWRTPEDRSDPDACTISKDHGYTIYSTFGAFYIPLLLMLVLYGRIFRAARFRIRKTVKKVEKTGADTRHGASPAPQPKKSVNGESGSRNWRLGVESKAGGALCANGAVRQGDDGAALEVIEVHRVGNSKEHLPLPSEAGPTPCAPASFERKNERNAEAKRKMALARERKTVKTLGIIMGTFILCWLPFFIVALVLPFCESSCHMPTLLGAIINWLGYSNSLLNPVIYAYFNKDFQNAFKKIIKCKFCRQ

The target of assay [4] is Sodium-dependent dopamine transporter (Homo sapiens, UniProt Q01959).
For assay [5], the target named is Prostaglandin G/H synthase 1 (Homo sapiens, UniProt P23219). It counts as functional.
The target in assay [6] is 3',5'-cyclic-AMP phosphodiesterase 4A (Homo sapiens, UniProt P27815). It is filed as functional.
In the next assay the target is Prothrombin (Homo sapiens, UniProt P00734). It counts as functional.
Also: assay procedure not described here.

Sequence of 3',5'-cyclic-AMP phosphodiesterase 4A (P27815 whole entry): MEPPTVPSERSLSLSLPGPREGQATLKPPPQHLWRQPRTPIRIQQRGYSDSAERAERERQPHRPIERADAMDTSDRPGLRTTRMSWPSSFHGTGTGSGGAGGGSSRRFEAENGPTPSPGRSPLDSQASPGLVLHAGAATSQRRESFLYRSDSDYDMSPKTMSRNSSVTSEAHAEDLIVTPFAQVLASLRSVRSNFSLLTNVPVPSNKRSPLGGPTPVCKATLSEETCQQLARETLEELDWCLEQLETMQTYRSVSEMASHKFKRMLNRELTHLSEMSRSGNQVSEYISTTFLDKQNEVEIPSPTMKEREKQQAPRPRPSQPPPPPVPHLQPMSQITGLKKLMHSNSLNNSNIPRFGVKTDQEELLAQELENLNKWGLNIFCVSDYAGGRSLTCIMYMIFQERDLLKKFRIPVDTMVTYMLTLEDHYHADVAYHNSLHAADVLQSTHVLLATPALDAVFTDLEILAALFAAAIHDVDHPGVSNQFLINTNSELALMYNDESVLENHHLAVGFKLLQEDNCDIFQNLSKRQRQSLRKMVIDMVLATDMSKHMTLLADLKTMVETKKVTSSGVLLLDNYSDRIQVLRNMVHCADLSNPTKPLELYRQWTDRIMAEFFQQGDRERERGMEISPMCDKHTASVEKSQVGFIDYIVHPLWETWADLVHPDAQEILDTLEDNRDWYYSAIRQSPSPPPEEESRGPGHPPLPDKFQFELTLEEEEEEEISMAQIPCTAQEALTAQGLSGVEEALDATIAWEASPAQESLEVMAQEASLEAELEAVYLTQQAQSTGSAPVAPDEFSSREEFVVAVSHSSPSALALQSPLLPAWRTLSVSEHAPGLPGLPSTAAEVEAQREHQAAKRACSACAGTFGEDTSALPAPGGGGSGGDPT
Sequence of Prostaglandin G/H synthase 1 (P23219 whole entry): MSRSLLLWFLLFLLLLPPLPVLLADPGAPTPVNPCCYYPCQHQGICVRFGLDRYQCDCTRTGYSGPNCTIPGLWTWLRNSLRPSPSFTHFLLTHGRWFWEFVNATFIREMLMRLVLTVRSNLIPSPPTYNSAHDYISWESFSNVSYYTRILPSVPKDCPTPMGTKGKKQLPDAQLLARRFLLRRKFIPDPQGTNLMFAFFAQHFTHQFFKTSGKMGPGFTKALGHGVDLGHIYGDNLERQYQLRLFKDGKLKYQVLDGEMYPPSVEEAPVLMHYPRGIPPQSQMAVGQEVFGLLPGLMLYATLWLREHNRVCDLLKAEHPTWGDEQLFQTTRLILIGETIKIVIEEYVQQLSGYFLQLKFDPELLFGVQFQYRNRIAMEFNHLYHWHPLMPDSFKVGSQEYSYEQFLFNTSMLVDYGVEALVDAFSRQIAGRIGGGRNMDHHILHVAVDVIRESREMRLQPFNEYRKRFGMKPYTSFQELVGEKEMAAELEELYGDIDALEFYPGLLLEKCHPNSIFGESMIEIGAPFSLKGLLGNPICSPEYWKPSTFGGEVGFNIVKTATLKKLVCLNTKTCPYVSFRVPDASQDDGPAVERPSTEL
Sequence of Sodium-dependent dopamine transporter (Q01959 whole entry): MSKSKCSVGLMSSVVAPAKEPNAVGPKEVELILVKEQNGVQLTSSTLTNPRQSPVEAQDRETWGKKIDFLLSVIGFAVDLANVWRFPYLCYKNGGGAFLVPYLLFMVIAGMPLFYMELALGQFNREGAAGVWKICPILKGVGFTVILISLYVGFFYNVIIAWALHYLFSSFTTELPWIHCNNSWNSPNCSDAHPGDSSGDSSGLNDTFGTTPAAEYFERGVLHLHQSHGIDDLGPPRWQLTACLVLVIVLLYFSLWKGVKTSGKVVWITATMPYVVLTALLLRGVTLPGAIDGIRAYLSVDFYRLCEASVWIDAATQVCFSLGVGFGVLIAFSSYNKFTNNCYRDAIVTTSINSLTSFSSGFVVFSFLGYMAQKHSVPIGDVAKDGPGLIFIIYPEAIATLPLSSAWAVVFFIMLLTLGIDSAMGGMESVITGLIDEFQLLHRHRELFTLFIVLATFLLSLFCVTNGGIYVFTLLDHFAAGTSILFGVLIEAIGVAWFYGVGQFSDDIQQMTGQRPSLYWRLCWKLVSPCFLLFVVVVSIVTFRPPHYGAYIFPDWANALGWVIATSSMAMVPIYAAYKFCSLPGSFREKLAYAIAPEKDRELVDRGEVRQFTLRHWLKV

A word on the AC50: it is the midpoint of the concentration-response curve, whichever way the signal moves. A higher AC50 goes with weaker potency. On to `CCCCN1C[C@H](O)[C@@H](O)[C@H](O)[C@H]1CO`, for which the AC50 (in [1]; at Endothelin-1 receptor; on Thromboxane A2 receptor) was above 30 µM in each case.

In the case of `CN(C)CCC=C1c2ccccc2C(C)(C)c2ccccc21`, the AC50 on Endothelin-1 receptor is above 30 µM.

Turning to `CCOC(=O)[C@H](CCc1ccccc1)N[C@@H](C)C(=O)N1[C@H](C(=O)O)C[C@@H]2CCC[C@@H]21`, the AC50 was above 30 µM in assay [1], above 10 µM in [2], above 30 µM on Endothelin-1 receptor and above 30 µM at Thromboxane A2 receptor.

Consider `Nc1nc(NC2CC2)c2ncn([C@H]3C=C[C@@H](CO)C3)c2n1` [ABACAVIR], for which the AC50 (in assay [1]; at Endothelin-1 receptor; at Thromboxane A2 receptor) was above 30 µM each time.

Consider `CC(=O)NCCCS(=O)(=O)O` [ACAMPROSATE], for which the AC50 (in assay [1]; on Endothelin-1 receptor; at Thromboxane A2 receptor) was above 30 µM throughout.

For `CCCSc1ccc2nc(NC(=O)OC)[nH]c2c1` [ALBENDAZOLE], the AC50 in assay [2] was above 10 µM; at Thromboxane A2 receptor, above 30 µM.

For `COc1cc2nc(N(C)CCCNC(=O)C3CCCO3)nc(N)c2cc1OC` (stereo not drawn) [ALFUZOSIN], the concentration at half-maximal activity (AC50) (in assay [1]; at Endothelin-1 receptor; at Thromboxane A2 receptor) was above 30 µM each time.

Consider `CNC(=O)c1ccccc1Sc1ccc2c(/C=C/c3ccccn3)n[nH]c2c1` [AXITINIB], for which the AC50 was above 10 µM in [2], above 30 µM at Endothelin-1 receptor and 8.66 µM at Thromboxane A2 receptor.

As for `CCc1oc2ccccc2c1C(=O)c1cc(I)c(O)c(I)c1` [BENZIODARONE], the AC50 in [3] was 12.4 µM; in [4] it was 9.96 µM; in assay [5], 29.8 µM; in [6] it was 2.37 µM; on Prothrombin it was above 30 µM.

Regarding `Cc1ccc(-c2cc(C(F)(F)F)nn2-c2ccc(S(N)(=O)=O)cc2)cc1` [CELECOXIB], the AC50 in assay [1] was above 10 µM; in [2] it was above 10 µM; on Endothelin-1 receptor it was above 30 µM; on Thromboxane A2 receptor it was above 10 µM.

Take `CC1=C(C(=O)O)N2C(=O)[C@@H](NC(=O)[C@H](N)c3ccccc3)[C@H]2SC1` [CEPHALEXIN ANHYDROUS]: the AC50 in assay [1] is above 30 µM; in assay [2], 5.78 µM; at Endothelin-1 receptor, above 30 µM; on Thromboxane A2 receptor, above 30 µM.

On to `CN1C(=O)CCS(=O)(=O)C1c1ccc(Cl)cc1` (stereo not drawn) [CHLORMEZANONE], for which the results for the half-maximal activity concentration (AC50) (in [2]; at Thromboxane A2 receptor) were above 30 µM and above 10 µM, respectively.

For the molecule `CN(C)CCC(c1ccc(Cl)cc1)c1ccccn1` (stereo not drawn) [CHLORPHENIRAMINE], the concentration at half-maximal activity (AC50) was above 30 µM in assay [1], 7.01 µM in [2], above 30 µM on Endothelin-1 receptor and above 30 µM on Thromboxane A2 receptor.

Take `C[N+](C)(C)CCO` [CHOLINE]: the half-maximal activity concentration (AC50) (in assay [3]; in assay [4]; in assay [5]; in assay [6]; at Prothrombin) was above 30 µM throughout.

In the case of `CN(C)/N=N/c1[nH]cnc1C(N)=O` [DACARBAZINE], the AC50 (in [2]; on Thromboxane A2 receptor) was above 10 µM in each case.

Regarding `O=C1Nc2ccc(Cl)cc2[C@@](C#CC2CC2)(C(F)(F)F)O1` [EFAVIRENZ], the AC50 is 45 µM in [1], above 10 µM in assay [2], above 30 µM on Endothelin-1 receptor and above 30 µM on Thromboxane A2 receptor.

With `C[N+]1(C)CCC(OC(=O)C(O)(c2ccccc2)C2CCCC2)C1` (stereo not drawn) [GLYCOPYRRONIUM BROMIDE], the AC50 (in [1]; in assay [6]; on Thromboxane A2 receptor; at Prothrombin) was above 30 µM each time.

As for `C[C@]12CCC(=O)C=C1CC[C@@H]1[C@@H]2[C@@H](O)C[C@@]2(C)[C@H]1CC[C@]2(O)C(=O)CO` [HYDROCORTISONE], the AC50 in assay [1] is above 30 µM; in assay [2], above 10 µM; on Endothelin-1 receptor it was above 30 µM; on Thromboxane A2 receptor, above 30 µM.

On to `O=P1(NCCCl)OCCCN1CCCl` (stereo not drawn) [IFOSFAMIDE], for which the AC50 (in assay [1]; in assay [2]; at Thromboxane A2 receptor) was above 30 µM each time.

Regarding `CCC(C)n1ncn(-c2ccc(N3CCN(c4ccc(OCC5COC(Cn6cncn6)(c6ccc(Cl)cc6Cl)O5)cc4)CC3)cc2)c1=O` (stereo not drawn) [ITRACONAZOLE], the AC50 in assay [1] was above 30 µM; in assay [2] it was above 10 µM; at Endothelin-1 receptor it was above 30 µM; on Thromboxane A2 receptor it was above 30 µM.

For the molecule `c1ccc([C@H]2CN3CCSC3=N2)cc1` [LEVAMISOLE], the values for the AC50 (in [2]; at Endothelin-1 receptor; at Thromboxane A2 receptor) were above 10 µM, above 30 µM and above 30 µM, respectively.

Molecule `C[C@H]1CNCCc2ccc(Cl)cc21` [LORCASERIN] returned an AC50 on Endothelin-1 receptor above 30 µM.

Take `CN1C(C(=O)Nc2ccccn2)=C(O)c2sc(Cl)cc2S1(=O)=O` [LORNOXICAM]: the AC50 is above 30 µM in assay [1], above 10 µM in assay [2] and above 30 µM at Thromboxane A2 receptor.

As for `C[C@@H](O)[C@H]1C(=O)N2C(C(=O)O)=C(S[C@@H]3CN[C@H](C(=O)N(C)C)C3)[C@H](C)[C@H]12` [MEROPENEM], the concentration at half-maximal activity (AC50) in [2] is above 10 µM; on Endothelin-1 receptor, above 300 µM; at Thromboxane A2 receptor, above 10 µM.

For `CNC1Cc2ccccc2N(C)c2ccccc21` (stereo not drawn) [METAPRAMINE], the half-maximal activity concentration (AC50) at Endothelin-1 receptor was above 30 µM.

Turning to `Clc1ccc(C(c2ccccc2Cl)C(Cl)Cl)cc1` (stereo not drawn) [MITOTANE], the AC50 (in assay [2]; at Thromboxane A2 receptor) was above 10 µM in each case.

For `Cc1nc([N+](=O)[O-])cn1-c1ccc([N+](=O)[O-])cc1` [NITREFAZOLE], the AC50 (in [1]; at Endothelin-1 receptor; at Thromboxane A2 receptor) was above 30 µM each time.

Turning to `COc1ccc(CC(C)(C)NC[C@H](O)c2cc(O)cc3c2OCC(=O)N3)cc1` [OLODATEROL], the half-maximal activity concentration (AC50) on Endothelin-1 receptor was above 30 µM.

Regarding `C1CCC(C(CC2CCCCN2)C2CCCCC2)CC1` (stereo not drawn) [PERHEXILINE], the AC50 at Endothelin-1 receptor is above 30 µM.

As for `c1cnc(N2CCN(Cc3ccc4c(c3)OCO4)CC2)nc1` [PIRIBEDIL], on Endothelin-1 receptor, the concentration at half-maximal activity (AC50) was above 30 µM.

As for `O=C(O[C@H]1C[C@H]2CC[C@@H](C1)[N+]21CCCC1)C(O)(c1ccccc1)c1ccccc1` [TROSPIUM], the AC50 (in assay [1]; at Thromboxane A2 receptor) was above 30 µM each time.

Take `N[C@@H]1[C@H]2CN(c3nc4c(cc3F)c(=O)c(C(=O)O)cn4-c3ccc(F)cc3F)C[C@@H]12` [TROVAFLOXACIN]: the AC50 on Endothelin-1 receptor is above 30 µM.

Turning to `Nc1ccn([C@H]2CC[C@@H](CO)O2)c(=O)n1` [ZALCITABINE], the AC50 (in assay [2]; on Thromboxane A2 receptor) was above 10 µM each time.

As for `NS(=O)(=O)Cc1noc2ccccc12` [ZONISAMIDE], the half-maximal activity concentration (AC50) (in [2]; at Thromboxane A2 receptor) was above 10 µM in each case.
